Patent US11319289B2, “5-hydroxy pyridine-based compound for use as P2X1 and P2X3 receptor antagonist and pharmaceutical composition comprising same” (GWANGJU INSTITUTE OF SCIENCE AND TECHNOLOGY, priority 2017, dated 2022)

How the values were obtained:
rP2X2/3 receptors = target: T1, rP2X2/3 receptors (Rattus norvegicus, UniProt P49653+P49654); assay: Antagonistic effect for heterologous rP2X2/3 receptors; assay type: cell-based; settings: FIG. 2
T1 sequence (P49653 1-472): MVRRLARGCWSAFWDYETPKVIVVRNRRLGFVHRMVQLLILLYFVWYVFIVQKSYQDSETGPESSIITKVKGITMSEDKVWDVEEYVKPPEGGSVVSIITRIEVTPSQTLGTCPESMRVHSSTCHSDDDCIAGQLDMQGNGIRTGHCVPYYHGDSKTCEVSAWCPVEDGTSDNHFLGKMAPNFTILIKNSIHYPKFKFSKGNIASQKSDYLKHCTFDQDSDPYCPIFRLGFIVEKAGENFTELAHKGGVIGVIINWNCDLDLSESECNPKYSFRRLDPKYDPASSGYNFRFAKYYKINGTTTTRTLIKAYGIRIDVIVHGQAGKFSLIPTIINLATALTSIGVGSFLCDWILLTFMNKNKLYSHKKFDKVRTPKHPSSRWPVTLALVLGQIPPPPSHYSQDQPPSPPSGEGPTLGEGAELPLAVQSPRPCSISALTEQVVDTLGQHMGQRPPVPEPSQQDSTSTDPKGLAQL
T1 sequence (P49654 1-397): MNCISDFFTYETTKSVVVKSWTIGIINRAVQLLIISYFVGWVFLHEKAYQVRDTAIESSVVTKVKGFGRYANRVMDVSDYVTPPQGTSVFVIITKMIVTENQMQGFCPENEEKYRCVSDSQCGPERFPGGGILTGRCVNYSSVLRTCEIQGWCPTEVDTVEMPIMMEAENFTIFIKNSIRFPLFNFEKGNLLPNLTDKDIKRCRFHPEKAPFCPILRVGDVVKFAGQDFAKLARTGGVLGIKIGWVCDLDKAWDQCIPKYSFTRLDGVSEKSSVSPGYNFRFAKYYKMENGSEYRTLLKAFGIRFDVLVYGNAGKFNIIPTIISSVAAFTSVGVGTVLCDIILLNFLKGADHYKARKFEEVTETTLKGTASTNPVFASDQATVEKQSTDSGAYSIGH
Description: FIGS. 2a to 2c show the antagonistic activity of Compound 29 of the present invention for P2X3 and P2X2/3 receptors (2a: hP2X3R, 2b: […]).

hERG K+ channel = target: T2, hERG K+ channel (Homo sapiens, UniProt Q12809); assay: hERG K+ channel patch-clamp assay in CHO-K1 Tet-On hERG cells; assay type: cell-based
T2 construct: host or cells: CHO-K1 Tet-On hERG cells
Description: 2-2. hERF Channel Test Method
hERG K^+ Channel Conventional Patch-Clamp Assay
CHO-K1 cells expressing hERG channels via an inducible Tet-On gene expression system (CHO-K1 Tet-On hERG cells) were purchased from IonGate Biosciences GmbH (Frankfurt, Germany). CHO-K1 Tet-On hERG cells were incubated in Dulbecco's modified Eagle's medium (DMEM) containing 10% (v/v) fetal bovine serum, penicillin (100 U/mL), streptomycin (100 μg/mL), fungizone (2.5 μg/mL), as well as selection antibiotics, geneticin G418 (200 μg/mL), hygromycin (200 μg/mL) and puromycin (2 μg/mL) in a humidified condition of 5% CO2 at 37° C. The cells were passaged by treatment with trypsin-EDTA every three days. […]
NPC-16 Patchliner (Nanion Technologies, Munchen, Germany), an automated patch-clamp apparatus, was used for the whole-cell recordings. Whole-cell currents were recorded using an intracellular solution (unit in mM) containing 50 KCl, 60 KF, 10 NaCl, 2 MgCl2, 20 EGTA and 10 HEPES (pH 7.2) and an extracellular solution (unit in mM) containing 140 NaCl, 4 KCl, 2 CaCl2, 1MgCl2, 5 glucose and 10 HEPES (pH 7.4). […]
hERG channel currents were recorded using a parallel EPC-10 patch clamp amplifier (HEKA Elektronik, Lambrecht/Pfalz, Germany), and low-pass filtering (10 kHz) was performed with a 4-pole Bessel filter. […]

T2 sequence (Q12809 whole entry): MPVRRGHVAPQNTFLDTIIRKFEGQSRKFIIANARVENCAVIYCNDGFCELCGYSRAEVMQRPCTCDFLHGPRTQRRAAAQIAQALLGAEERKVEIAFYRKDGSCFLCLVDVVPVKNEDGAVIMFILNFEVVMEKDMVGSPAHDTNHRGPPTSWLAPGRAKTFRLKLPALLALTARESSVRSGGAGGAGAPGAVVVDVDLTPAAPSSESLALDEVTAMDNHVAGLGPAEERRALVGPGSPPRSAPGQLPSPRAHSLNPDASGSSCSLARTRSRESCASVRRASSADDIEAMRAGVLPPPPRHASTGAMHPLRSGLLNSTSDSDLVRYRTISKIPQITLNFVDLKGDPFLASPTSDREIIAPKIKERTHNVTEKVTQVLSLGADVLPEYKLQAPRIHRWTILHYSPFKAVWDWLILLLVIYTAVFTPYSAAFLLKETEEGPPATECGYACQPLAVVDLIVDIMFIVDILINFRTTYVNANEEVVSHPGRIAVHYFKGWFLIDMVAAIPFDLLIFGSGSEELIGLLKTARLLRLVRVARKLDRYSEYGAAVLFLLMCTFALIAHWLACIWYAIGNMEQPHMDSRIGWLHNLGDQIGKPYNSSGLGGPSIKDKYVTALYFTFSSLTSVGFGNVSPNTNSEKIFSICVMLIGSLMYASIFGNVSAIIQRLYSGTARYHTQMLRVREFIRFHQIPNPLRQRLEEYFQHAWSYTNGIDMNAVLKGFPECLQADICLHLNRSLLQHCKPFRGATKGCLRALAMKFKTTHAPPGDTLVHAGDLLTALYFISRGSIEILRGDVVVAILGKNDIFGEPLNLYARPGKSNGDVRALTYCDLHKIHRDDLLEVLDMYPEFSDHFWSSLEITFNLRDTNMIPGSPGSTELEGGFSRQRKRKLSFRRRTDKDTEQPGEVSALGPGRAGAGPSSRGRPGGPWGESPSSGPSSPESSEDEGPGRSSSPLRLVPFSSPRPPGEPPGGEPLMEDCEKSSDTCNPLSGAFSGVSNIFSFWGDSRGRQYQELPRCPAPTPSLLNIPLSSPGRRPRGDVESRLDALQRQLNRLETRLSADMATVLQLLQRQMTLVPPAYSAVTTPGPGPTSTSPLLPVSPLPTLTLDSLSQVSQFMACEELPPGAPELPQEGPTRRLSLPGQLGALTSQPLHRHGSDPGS

antagonistic effect for heterologous rP2X2/3 receptors (rP2X2/3 receptors): showed an antagonistic effect
SMILES: CCCc1nc(Cc2cccc(Oc3ccccc3)c2)c(C)c(C(=O)O)c1O [Compound 29, 3-Hydroxy-5-methyl-6-(3-phenoxybenzyl)-2-propylisonicotinic acid]
IC50 (hERG K+ channel; patch clamp, CHO-K1 Tet-On hERG cells): > 100 µM
in vitro inhibitory activity against hERG channels (hERG K+ channel; result in words): did not show any inhibitory activity
